The structures appear in SMILES notation.

This note sets out measurements from US4837238A, “Pharmacologically useful pyrazolopyridines” (Beecham Group p.l.c., priority 1985, dated 1989).

Format in all cases: in vivo
One test concerns cantharidin mouse ear. Nature of the test: Mouse cantharidin screen (topical anti-inflammatory activity, mouse ear). The settings on record: 500 μg/ear, 25 μg cantharidin, 24 h, ***P < 0.001. As for the experimental part: Compounds were tested for topical anti-inflammatory activity in a cantharidin mouse ear screen, modified from Swingle, K. F., Reiter, M. J. and Schwartzmiller, D. H., Arch. Int. Pharmacodyn., (1981), 254, 168-176).
(a) 25 μg cantharidin (in 10 μl THF/MeOH) was applied to both ears. Compound, in the same solvent, was applied at the same time, to the left ear only. Ears were weighed 24 h after cantharidin application. Percentage inhibition of the acute inflammatory swelling refers to the increase in weight of left ears (cantharidine plus compound) compared with solvent-treated negative controls, as a proportion of the increase in weight of right ears (cantharidin alone) over similar controls.

Test [1] deals with Carrageenin-induced pleurisy in the rat. Nature of the test: Carrageenin-induced pleurisy in the rat (monocyte accumulation). The settings on record: 25 mg/kg p.o., 1 hour before and 24 and 48 hours after carrageenin, 72 hours; compared to control (p<0.05). The procedure: This model of monocyte accumulation is based on the method of R. Vinegar, J. F. Truax, J. L. Selph and F. A. Voelker [Federation Proceedings 41, 2588-2595, 1982].
0.2 ml of a 2.0% solution of λ-carrageenin (Viscarin 402) in saline was injected intrapleurally in anaesthetised rats (wt. approx. 175-200 g). Compounds were administered 1 hour before carrageenin and at 24 and 48 hours after carrageenin. 72 hours after carrageenin injection, 4.0 ml of EDTA solution (5 g EDTA in 100 ml of 0.9% saline and 325 mg phenol red added together with saline to 1 liter) was injected intrapleurally after killing the animals, and the exudate was removed with a syringe through the diaphragm. Exudate volume was calculated from the dilution of the phenol red injected, determined spectrophotometrically (560 nm) and cellular content estimated with a DNA assay [Karsten U. and Wollenberger A. Anal. Biochem. 77, 464-470, 1977].

In test [2] the test system is mouse sensitized to oxazolone. Nature of the test: Mouse oxazolone screen (topical anti-inflammatory activity, sensitized mouse ear). The settings on record: 200 μg/ear, 1 hour before 100 μg oxazolone challenge, 24 hours, **p < 0.01, ***p < 0.001. As for the experimental part:
Compounds were tested for topical anti-inflammatory activity in a screen using the mouse sensitized to oxazolone, by a method modified from that of Dietrich and Hess [Int. Arch. Allergy, 38, 246 (1970)].
Mice were sensitized with oxazolone (2 mg in 20 μl EtOH) on a shaved area of the abdomen. 5 days later, the animals received 10 μl THF/MeOH (1:1 v/v) on the right ear and the test compound in the same solvent on the left ear. 1 hour later, the animals were challenged with 100 μg oxazolone in 10 μl acetone on each ear. Ear weights were measured 24 hours later. Percentage inhibition of the inflammatory swelling refers to the increase in weight of left ears (oxazolone plus compound in THF/MeOH) compared to untreated negative controls, as a proportion of the increase in weight of right ears (oxazolone only in THF/MeOH) over similar controls.

For `CCCCNc1c(C)cnc2cn[nH]c12` [Example 1, 7n-Butylamino-6-methyl-1H-pyrazolo[4,3-b]pyridine], the “% INHIBITION (acute inflammatory swelling, ear weight)” value with cantharidin mouse ear is 95%.

On to `OCCNc1c2c(nc3cn[nH]c13)CCCC2` [Example 5, 9-(2-Hydroxyethylamino)-5,6,7,8-tetrahydro-1H-pyrazolo-[4,3-b]quinoline], for which the “% INHIBITION (acute inflammatory swelling, ear weight)” value in the test with cantharidin mouse ear is recorded as 91%. Further, in test [1], the “inhibition of DNA content (exudate cellular content)” value was determined as 31% and the “inhibition of exudate volume” value is on record as 36%.

Take `CC(C)CNc1c2c(nc3cn[nH]c13)CCCC2` [Example 6, 9-Isobutylamino-5,6,7,8-tetrahydro-1H-pyrazolo[4,3-b]quinoline]: in the test with cantharidin mouse ear, the “% INHIBITION (acute inflammatory swelling, ear weight)” value is on record as 97%. In addition, the “% INHIBITION (inflammatory swelling, ear weight)” value in test [2] is listed as 66%.

With `CC(C)CNc1c2c(nc3cn[nH]c13)CCC2` [Example 8, 8-Isobutylamino-5,6,7-trihydro-1H-cyclopenta[b]pyrazolo[3,4-e]pyridine], the “% INHIBITION (acute inflammatory swelling, ear weight)” value with cantharidin mouse ear came out at 97%. The “% INHIBITION (inflammatory swelling, ear weight)” value in test [2] is 49%.

As to `CCCNc1c(CN)cnc2cn[nH]c12` [Example 9, 6-Aminomethyl-7-propylamino-1H-pyrazolo[4,3-b]pyridine], the “% INHIBITION (acute inflammatory swelling, ear weight)” value in the test on cantharidin mouse ear is recorded as 91%.
